From publication PMC9130233, “An inhibitor of RORγ for chronic pulmonary obstructive disease treatment” (Scientific Reports, 2022) come the findings set out here.

One series has as its system T1, mouse RORγ.
T1 construct: RORγt-LBD region 264-516aa; made in house
The series can be described thus: Dissociation assay, jump dilution method (TR-FRET), mouse. The class given is binding. The method, then:
To understand the inverse agonist behavior at the molecular level, interaction with the nuclear receptor RORγ was analyzed in binding assays by estimating its dissociation constant (Koff) and half-life (t1/2). The binding of a ligand stabilizes the conformation of the LBD while binding of a cofactor modifies receptor activity. Binding reversibility was evaluated by adding an excess of competing ligand in the FRET assay and evaluating the displacement of the tracer with inhibitor. Binding of the PCCR-1 with the LBD caused reduction in FRET on antibody addition forming a GST (Glutathione S-transferases) tagged RORγ-antibody complex. The dissociation assay was performed using the jump dilution method with PCCR-1 at a concentration showing maximum binding potency or IC90. The dissociation was tested on addition of an excess of a competitive ligand, the tracer.
(TR-FRET usually uses a lanthanide donor and a delayed reading to cut background.)

The test system of series [1] is IL-17 cytokine from rat splenocytes. The series can be described thus: IL-17 inhibition, rat splenocytes. The conditions noted are these: Splenocyte, read-out: potency, rat IL-17 inhibition. In kind it is cell-based.
The subject of series [2] is IL-17A release in human PBMC. The series can be described thus: IL-17A release, human PBMC under Th17 polarization conditions. The class given is cell-based. As to conditions: human PBMC under Th17 polarization condition, n = 2; read-out: hIL-17 (IL-17A) IC50. The method, then: An increase in the levels of Th17 dependent cytokine in the peripheral blood of COPD patients as compared to the Th1 and Th2 dependent cytokines has been well documented in a subset of COPD patients. A comparative study was performed under TCR activating conditions to evaluate the potencies of PCCR-1 for inhibition across Th1, Th2 and Th17 dependent cytokines using hPBMCs.
Human whole blood from healthy subjects were procured from Clinical Research Unit, Sanpada. Clinical Research Center Glenmark (Plot No. D, 508, Turbhe, TTC Industrial Area, MIDC, Sanpada, Navi Mumbai, Maharashtra 400705, India). PBMCs were isolated using heparinized blood with Ficoll Histopaque. Briefly, the cells were seeded in 96-well plate pre-coated with human anti-CD3 mAb (10 µg/mL), post 30 min of compound treatment cells were stimulated with human anti-CD28 mAb (2 µg/mL). After 72 h of culture, the supernatant was collected for Th1/Th2 cytokines; IFN-γ, IL-2, IL-4 and IL-10 and measured by ELISA. For Th17 polarization assay, the following cytokine cocktail was used: IL-1β (10 ng/ml), IL-23(10 ng/ml), IL-6 (50 ng/ml), TGF-β1 (3 ng/ml), IL-2 (20U/ml) and supernatants were used for measuring IL-17 and IL-22 by ELISA.

The subject of another series is T2, RORα.
T2 construct: purchased Invitrogen
The series is described as follows: TR-FRET selectivity binding assay, RORα. Set-up: species or system human. The text has this: Based on the homology of the ligand binding domains, 3 different isoforms of ROR (hRORα, hRORβ and hRORγ) are reported. Small variations in the LBD regions possibly lead to differences in competitive binding between the nuclear receptors of the ROR isoforms (Fig. 1b). Similar to the assessment of RORγ binding assay, TR-FRET binding assays were also used to assess the affinity of PCCR-1 for other ROR isoforms. […] This was reconfirmed in cellular functional assays for the selected isoforms and nuclear receptors using Gal4 DBD with luciferase reporter system from Indigo (PA, USA). […] In addition, both cellular agonist and antagonist effects as well as for enzyme activity were evaluated with a known reference compound for each target, using a radiolabeled method (Eurofins Cerep, France, Table 1).
For selectivity, the ROR isoforms RORα, FXR, LXRα, LXRβ, RXR, RARα were incubated with compound for 60 min at 22 °C followed by detection mix containing respective agonist (All trans retinoic acid for RARα, T0901317 for LXRα, LXRβ, 9-cis Retinoic acid for RXR, GW-4064 for FXR) and coactivator peptide (FD22 for RORα, PGC1α for RXR, RARα, TRAP220 for LXRα, LXRβ, SRC2-2 for FXR) and Tb-anti GST antibody prepared in assay buffer were added into a 384-well white plate. Reading taken after overnight incubation and the data analysis done as per the protocol mentioned in RORγt-LBD and co-activator ligand binding assay.

The subject of series [3] is IL-17 release from COPD patient PBMCs. The series is described as follows: IL-17 release, PBMC from COPD patients. The class given is cell-based. As to conditions: Homo sapiens, TCR stimulated, n = 16, read-out: IL-17 IC50, COPD patient's sample: PBMC. The method, then:
(§1) Whole blood and BAL samples from COPD patients were obtained from Multispecialty hospital, Mumbai post approval from ethics committee and informed consent of patients. 30–40 mL Broncho alveolar lavage (BALf) was collected per patient and stored in ice. Blood was collected in heparin vaccutainer as per approved protocol. Both the samples were processed within 2 h of collection. BALF was passed through 100-µm and 40-µm cell strainer to remove debris and mucus, the samples were centrifuged and the cells were re-suspended in RPMI 1640 complete medium. PBMCs from blood were isolated using Histopaque-1077 by density gradient centrifugation. Isolated BAL cells and PBMCs were seeded in 96 well coated with 10 µg/ml anti-CD3 and 2 µg/ml anti-CD2. Cells were further treated with different concentration of test compound for 60 min followed by stimulation with 20 µg/ml anti-CD28 and incubated for 48–72 h. The supernatant was used for estimating IL-17 by ELISA.

The test system of series [4] is IL-17 release from COPD lung BALf cells. The series is described as follows: IL-17 release, BALf cells from COPD patients. In kind it is cell-based. The conditions noted are these: Homo sapiens; TCR stimulated, n = 10; read-out: IL-17 IC50, COPD patient's sample: BAL. The method, then: as §1
In series [5] the test system is IL-17A in human whole blood. The series can be described thus: IL-17A inhibition, human whole blood, TCR stimulation. The conditions noted are these: TCR stimulatory conditions, n = 10. The class given is cell-based. The method, then:
For whole blood assay the heparinized whole blood was diluted (1:1) with saline and added in 96-well plate pre-coated with human anti-CD3 mAb (10 µg/mL). Compound treatment was done for 30 min followed by co-stimulation with anti-CD28 mAb (2 µg/mL). After 48 h of incubation supernatant was used for IL-17 estimation by ELISA.

A further series has as its target hERG (Homo sapiens, UniProt Q12809). The series can be described thus: hERG. The conditions noted are these: rated moderate.

hERG, sequence (Q12809 whole entry): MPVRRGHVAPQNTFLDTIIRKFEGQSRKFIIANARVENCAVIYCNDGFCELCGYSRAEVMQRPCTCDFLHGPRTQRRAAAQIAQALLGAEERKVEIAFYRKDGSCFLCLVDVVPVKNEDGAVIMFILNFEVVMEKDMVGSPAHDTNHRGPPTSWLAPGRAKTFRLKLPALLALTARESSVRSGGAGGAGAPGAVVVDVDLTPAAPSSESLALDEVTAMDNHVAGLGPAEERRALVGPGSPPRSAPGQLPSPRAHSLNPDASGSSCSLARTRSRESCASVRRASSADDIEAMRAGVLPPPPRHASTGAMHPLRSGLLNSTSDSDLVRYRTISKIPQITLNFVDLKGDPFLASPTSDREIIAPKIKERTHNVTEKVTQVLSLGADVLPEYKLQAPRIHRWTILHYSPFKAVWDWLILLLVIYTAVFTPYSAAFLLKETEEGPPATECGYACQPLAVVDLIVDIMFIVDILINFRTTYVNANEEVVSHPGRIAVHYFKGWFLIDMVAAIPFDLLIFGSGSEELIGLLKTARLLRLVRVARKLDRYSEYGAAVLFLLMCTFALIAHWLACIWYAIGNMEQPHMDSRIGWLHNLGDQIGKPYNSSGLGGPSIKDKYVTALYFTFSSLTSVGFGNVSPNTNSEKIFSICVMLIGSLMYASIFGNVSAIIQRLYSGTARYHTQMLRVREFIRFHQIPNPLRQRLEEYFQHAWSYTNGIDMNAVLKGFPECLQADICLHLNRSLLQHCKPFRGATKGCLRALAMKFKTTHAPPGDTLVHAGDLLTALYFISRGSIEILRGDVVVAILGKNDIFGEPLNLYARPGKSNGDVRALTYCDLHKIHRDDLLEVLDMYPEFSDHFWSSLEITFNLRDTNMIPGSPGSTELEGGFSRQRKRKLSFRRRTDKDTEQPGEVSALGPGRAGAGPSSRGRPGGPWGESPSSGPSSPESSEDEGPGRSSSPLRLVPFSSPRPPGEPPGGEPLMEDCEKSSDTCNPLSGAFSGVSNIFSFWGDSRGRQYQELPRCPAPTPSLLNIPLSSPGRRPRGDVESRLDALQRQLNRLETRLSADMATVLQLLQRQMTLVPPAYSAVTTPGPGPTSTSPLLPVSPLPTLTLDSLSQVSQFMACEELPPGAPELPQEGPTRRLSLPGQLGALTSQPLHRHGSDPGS

For the compound `CCn1c(C(C)(C)Oc2ccc(F)cc2F)nc2cc(NC(=O)Cc3ccc(S(=O)(=O)CC)cc3)ccc21` [PCCR-1], the “dissociation from the target protein” value in the series with mouse RORγ (mouse RORγ, jump dilution) is 20–25%. Also, the “t1/2 (target residence time)” value with mouse RORγ (mouse RORγ, jump dilution, PCCR-1 at IC90) is 4.69 h. Besides, the absolute dissociation in the series on mouse RORγ (mouse, till 3 h of measurement) came to 50%. Moreover, the IC50 in series [1] amounted to 80.6 nM; in series [2], 66.5 nM; in series [3], 336 nM; in series [4], 522 nM; in series [5] it was 3050 nM; at hERG, 6000 nM. In addition, the figures for the “% Inhibition RORα” value in the series with RORα (1 µM) and in the series on RORα (10 µM) were 20.91% and 19.82%, respectively. For the same compound, the “Fold over hRORγ, RORα” value with RORα (vs RORg IC50 31.87 nM) is given as above 313.7 fold.
